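Compound exposure: 48 hours, 5 concentrations, 96-well plates. The concentration for 50% growth inhibition is given as GI50.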 Calls of active or inactive are those of the source. No stated cut-off is given here; in the data, active = GI50 up to about 1.1 µM and inactive = higher.
Tests used:
Assay in all cases: growth of human tumour cells (NCI), 48 h
[1] = system: LXFL 529
[2] = system: XF498
[3] = system: HCT-116
[4] = system: U-251
[5] = system: UACC-62
[6] = system: OVCAR-3
[7] = system: DMS-273
[8] = system: HOP-62
[9] = system: SF-295
[10] = system: SF-539
[11] = system: TK-10
[12] = system: SF-268
[13] = system: IGROV-1
[14] = system: KM12
[15] = system: UACC-257
[16] = system: DMS-114
[17] = system: DLD-1
[18] = system: KM-20L2

Measured: GI50

C/C(=N\NC(=S)Nc1ccc(C(=O)O)cc1)c1ccccn1
inactive: [1] 3.05 µM | [2] 26.4 µM | [3] 23.5 µM | [4] 24.2 µM | [5] 5.04 µM | [6] 13.7 µM | [7] 24 µM | [8] 30.5 µM | [9] 40.4 µM | [10] 18.3 µM | [11] 30.6 µM | [12] 49.9 µM | [13] 31.8 µM | [14] 25.5 µM | [15] 25.4 µM | [16] 23.1 µM | [17] 27.7 µM | [18] 25.8 µM

c1ccc(C2N=C(c3ccccn3)C(c3ccccn3)=NC2c2ccccc2)cc1 (stereo unspecified)
inactive: [1] > 100 µM | [2] > 100 µM | [3] > 100 µM | [4] > 100 µM | [5] > 100 µM | [6] > 100 µM | [7] > 100 µM | [8] 20 µM | [9] > 100 µM | [10] > 100 µM | [11] > 100 µM | [12] > 100 µM | [13] > 100 µM | [14] > 100 µM | [15] > 100 µM | [16] > 100 µM | [17] > 100 µM | [18] > 100 µM
